Assay results reported in ChEMBL document CHEMBL1201862, “PubChem BioAssay data set” (2004).
Calls of active or inactive are those of the source.

Legend:
[1] = molecular target: T1, Beta-galactosidase (Escherichia coli, UniProt Q8VNN2); experiment: PubChem AID 485352; assay type: functional
[2] = molecular target: T2, Type-1 angiotensin II receptor (Homo sapiens, UniProt P30556); experiment: antagonism of angiotensin II type 1 receptor – cell-based, uHTS hits, selectivity assay for APJ receptor antagonist project, dose response (AID 463214); assay type: functional;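 note: antagonist potency against angiotensin II stimulated AT1 response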
T2 sequence (P30556 whole entry): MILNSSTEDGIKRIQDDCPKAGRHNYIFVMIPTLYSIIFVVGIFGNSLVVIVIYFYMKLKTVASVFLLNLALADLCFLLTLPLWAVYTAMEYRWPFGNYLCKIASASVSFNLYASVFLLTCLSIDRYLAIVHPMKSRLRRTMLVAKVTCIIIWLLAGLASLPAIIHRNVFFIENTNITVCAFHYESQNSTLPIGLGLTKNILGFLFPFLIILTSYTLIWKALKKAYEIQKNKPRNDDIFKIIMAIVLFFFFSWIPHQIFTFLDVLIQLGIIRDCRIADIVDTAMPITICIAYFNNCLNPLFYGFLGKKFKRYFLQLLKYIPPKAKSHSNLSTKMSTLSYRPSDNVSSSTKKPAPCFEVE

[3] = molecular target: Voltage-gated inwardly rectifying potassium channel KCNH2 (Homo sapiens, UniProt Q12809); settings: Potency;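 note: confirmatory quantitative high-throughput screen measuring inhibition of hERG channel activity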
[4] = molecular target: Cytochrome P450 3A4 (Homo sapiens, UniProt P08684); settings: Potency;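 note: confirmatory qHTS run detecting inhibitors and substrates of CYP3A4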
[5] = NIH-3T3 fibroblast cytotoxicity, dose response, cytotoxicity control, cell-based, fluorescence, Alamar Blue, secondary assay (AID 2327); assay type: functional;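 note: NIH-3T3 mouse fibroblasts cultured with fluconazole at 8 µg/mL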
[6] = molecular target: Serine/threonine-protein phosphatase (Candida dubliniensis (strain CD36 / CBS 7987 / NCPF 3949 / NRRLY-17841) (Yeast), UniProt B9W6M3); experiment: blockers of CaCl2-induced CDRE-lacZ signaling – S. cerevisiae, luminescence, secondary, dose response (AID 2388); assay type: functional, cell-based;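 note: yeast reporter cells carrying a calcineurin-responsive lacZ construct stimulated with calcium chloride; luminescent beta-galactosidase reporter signal in whole cells rather than isolated phosphatase activity; potency for inhibition where a drop in reporter signal means calcineurin blockade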
[7] = molecular target: ATP-dependent molecular chaperone HSP82 (Candida albicans (strain WO-1) (Yeast), UniProt C4YTQ8); experiment: steroid-induced GRE reporter decrease in yeast – S. cerevisiae, luminescence, Hsp90 inhibitor project, dose response (AID 2400); assay type: functional, cell-based;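 note: beta-galactosidase luminescence from glucocorticoid response element reporter as proxy for Hsp90 function; inhibitor potency where signal loss means Hsp90 inhibition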
[8] = molecular target: T3, COUP transcription factor 2 (Homo sapiens, UniProt P24468); experiment: Luminescence-based cell-based high throughput dose response assay to identify inhibitors of COUP-TFII (NR2F2).; assay type: functional;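 note: HEK293 cells transiently cotransfected with COUP-TFII expression vector and reporter; luciferase reporter luminescence driven by COUP-TFII from the pX2-168 reporter plasmid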
T3 sequence (P24468 whole entry): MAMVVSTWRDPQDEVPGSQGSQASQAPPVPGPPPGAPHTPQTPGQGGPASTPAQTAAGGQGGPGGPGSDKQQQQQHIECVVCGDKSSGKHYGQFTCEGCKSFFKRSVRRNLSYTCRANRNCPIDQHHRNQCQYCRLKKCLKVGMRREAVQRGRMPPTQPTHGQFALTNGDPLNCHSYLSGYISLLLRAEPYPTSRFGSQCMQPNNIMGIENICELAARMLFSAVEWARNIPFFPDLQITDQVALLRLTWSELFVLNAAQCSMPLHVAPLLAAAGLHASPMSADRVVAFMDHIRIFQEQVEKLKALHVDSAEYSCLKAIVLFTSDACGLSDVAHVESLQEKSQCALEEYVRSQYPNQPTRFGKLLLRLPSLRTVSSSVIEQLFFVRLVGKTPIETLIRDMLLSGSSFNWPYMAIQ

[9] = HEK-293T viability loss after treatment – luminescence, T-cell screen hits, cytotoxicity control for TCR NF-kB inhibitor project, dose response (AID 489026); assay type: functional, cell-based;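 note: cells exposed to compound about 14 hours before the viability readout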
[10] = tested on: INS1; experiment: INS-1E survival protection against cytokine death – cell-based, luminescence, retest, dose response (AID 449756); assay type: functional; settings: Rattus norvegicus;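 note: cell death triggered by IL-1 beta plus TNF-alpha plus IFN-gamma mixture; protective hits raise ATP signal compared with cytokine alone wells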
[11] = molecular target: T4, Microphthalmia-associated transcription factor (Homo sapiens, UniProt O75030); experiment: reducers of TRPM1 reporter luminescence, concentration series – cell-based, SK-MEL-5, cherry-picked, set 3, MITF inhibitor project, dose response (AID 493073); assay type: functional;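 note: SK-MEL-5 melanoma cells with luciferase driven by the MITF target TRPM1 promoter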
T4 sequence (O75030 whole entry): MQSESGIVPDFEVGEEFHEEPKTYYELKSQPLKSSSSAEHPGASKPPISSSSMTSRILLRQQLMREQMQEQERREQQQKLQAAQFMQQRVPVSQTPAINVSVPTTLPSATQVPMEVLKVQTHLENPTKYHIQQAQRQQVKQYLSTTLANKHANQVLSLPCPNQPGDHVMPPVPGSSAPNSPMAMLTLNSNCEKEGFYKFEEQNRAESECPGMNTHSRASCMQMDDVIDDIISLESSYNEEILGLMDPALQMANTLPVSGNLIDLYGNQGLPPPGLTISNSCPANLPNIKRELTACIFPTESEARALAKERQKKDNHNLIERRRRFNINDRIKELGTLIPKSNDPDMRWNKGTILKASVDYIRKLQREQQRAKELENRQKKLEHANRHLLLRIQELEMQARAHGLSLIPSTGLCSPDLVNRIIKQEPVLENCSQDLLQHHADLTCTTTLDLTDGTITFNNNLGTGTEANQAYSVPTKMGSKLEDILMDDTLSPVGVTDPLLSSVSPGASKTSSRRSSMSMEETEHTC

[12] = Trypanosoma cruzi growth suppression in host cells – NIH3T3 host cells, beta-gal luminescence, confirmation (AID 2044); assay type: functional, cell-based;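 note: intracellular parasites grown in NIH/3T3 mouse fibroblasts as host cells; luminescent beta-galactosidase reporter signal from transgenic T. cruzi replicating inside host cells; inhibitors lower the luminescence signal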
[13] = NIH3T3 cell viability loss – ATP luminescence, mouse fibroblasts, counter-screen, dose response (AID 2010); assay type: functional, cell-based;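 note: cells exposed to compound for about 90 hours before reading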
[14] = fluconazole-exposed Candida albicans growth modulators – fluorescence, retest, confirmation (AID 2467); assay type: functional, cell-based
[15] = molecular target: T5, Tyrosyl-DNA phosphodiesterase 2 (Homo sapiens, UniProt O95551); experiment: potency against TDP2 phosphodiesterase activity – biochemical, epi absorbance, IC50, dose response (AID 743297)
T5 sequence (O95551 whole entry): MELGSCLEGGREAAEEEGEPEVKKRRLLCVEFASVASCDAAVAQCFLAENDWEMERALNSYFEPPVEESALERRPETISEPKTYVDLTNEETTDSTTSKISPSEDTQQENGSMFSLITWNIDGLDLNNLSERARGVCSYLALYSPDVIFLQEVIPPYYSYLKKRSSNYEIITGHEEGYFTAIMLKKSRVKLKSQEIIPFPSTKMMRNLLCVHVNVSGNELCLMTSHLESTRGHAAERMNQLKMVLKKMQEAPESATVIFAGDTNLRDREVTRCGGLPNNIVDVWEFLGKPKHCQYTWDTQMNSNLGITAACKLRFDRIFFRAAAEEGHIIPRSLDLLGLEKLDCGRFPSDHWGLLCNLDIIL

[16] = molecular target: T6, Hexokinase HKDC1 (Homo sapiens, UniProt Q2TB90); experiment: inhibition of HKDC1 glucose phosphorylation – biochemical, W721R variant, dose response (AID 504729); assay type: functional
T6 sequence (Q2TB90 whole entry): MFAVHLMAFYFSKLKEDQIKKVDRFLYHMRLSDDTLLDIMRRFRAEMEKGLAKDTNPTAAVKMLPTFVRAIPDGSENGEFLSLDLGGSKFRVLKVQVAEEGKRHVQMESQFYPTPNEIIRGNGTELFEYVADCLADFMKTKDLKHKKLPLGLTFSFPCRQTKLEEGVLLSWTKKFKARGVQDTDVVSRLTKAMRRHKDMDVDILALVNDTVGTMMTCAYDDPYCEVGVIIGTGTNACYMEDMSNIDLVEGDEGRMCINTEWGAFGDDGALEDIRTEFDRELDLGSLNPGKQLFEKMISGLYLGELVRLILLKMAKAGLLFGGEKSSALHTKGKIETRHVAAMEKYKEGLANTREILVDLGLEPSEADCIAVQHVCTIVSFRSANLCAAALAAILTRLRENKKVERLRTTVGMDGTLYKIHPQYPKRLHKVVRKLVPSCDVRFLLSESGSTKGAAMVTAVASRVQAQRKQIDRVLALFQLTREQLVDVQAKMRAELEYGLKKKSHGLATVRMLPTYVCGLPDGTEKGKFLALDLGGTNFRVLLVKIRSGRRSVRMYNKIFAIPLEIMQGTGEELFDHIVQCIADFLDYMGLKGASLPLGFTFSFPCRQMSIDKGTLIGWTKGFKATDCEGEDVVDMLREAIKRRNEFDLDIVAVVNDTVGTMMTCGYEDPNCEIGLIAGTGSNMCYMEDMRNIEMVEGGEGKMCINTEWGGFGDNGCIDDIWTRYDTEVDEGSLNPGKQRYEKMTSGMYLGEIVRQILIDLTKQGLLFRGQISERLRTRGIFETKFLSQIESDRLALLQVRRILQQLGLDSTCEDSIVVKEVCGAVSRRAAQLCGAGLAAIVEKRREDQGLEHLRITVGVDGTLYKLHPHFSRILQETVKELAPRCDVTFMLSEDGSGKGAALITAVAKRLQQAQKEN

[17] = molecular target: Genome polyprotein (dengue virus type 2, UniProt P29990); experiment: flavivirus cap methylation enzyme inhibition – biochemical, confirmation dose response, primary screen (AID 588689); assay type: functional
[18] = molecular target: Glucose-6-phosphate 1-dehydrogenase (Homo sapiens, UniProt P11413); experiment: inhibition of Homo sapiens G6PD, dose series – biochemical, fluorescence, selectivity assay for P. falciparum G6PD inhibitor project, dose response (AID 504792); assay type: functional
[19] = molecular target: T1, Beta-galactosidase; experiment: detection-enzyme interference by beta-gal modulators – biochemical, E. coli enzyme, set 3, artefact control for CCR6 antagonist project, dose response (AID 504712); assay type: functional
[20] = molecular target: T7, C-C chemokine receptor type 6 (Homo sapiens, UniProt P51684); experiment: antagonism of CCR6 beta-arrestin recruitment – cell-based, luminescent beta-arrestin readout, dose response (AID 504728); assay type: functional
T7 sequence (P51684 whole entry): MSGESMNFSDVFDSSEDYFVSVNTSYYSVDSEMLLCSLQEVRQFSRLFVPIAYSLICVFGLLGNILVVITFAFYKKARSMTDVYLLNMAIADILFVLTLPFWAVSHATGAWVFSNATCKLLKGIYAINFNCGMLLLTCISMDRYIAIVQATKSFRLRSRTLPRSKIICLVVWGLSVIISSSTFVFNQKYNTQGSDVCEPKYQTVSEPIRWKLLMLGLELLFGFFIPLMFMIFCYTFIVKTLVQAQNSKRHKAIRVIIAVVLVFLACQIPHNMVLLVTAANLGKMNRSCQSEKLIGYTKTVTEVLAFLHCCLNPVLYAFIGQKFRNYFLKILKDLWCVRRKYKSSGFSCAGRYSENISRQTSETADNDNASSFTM

[21] = molecular target: T8, Mitochondrial peptide methionine sulfoxide reductase (Bos taurus, UniProt P54149); experiment: Absorbance-based biochemical high throughput dose response assay for activators of Methionine sulfoxide reductase A (MsrA).; assay type: functional
T8 sequence (P54149 whole entry): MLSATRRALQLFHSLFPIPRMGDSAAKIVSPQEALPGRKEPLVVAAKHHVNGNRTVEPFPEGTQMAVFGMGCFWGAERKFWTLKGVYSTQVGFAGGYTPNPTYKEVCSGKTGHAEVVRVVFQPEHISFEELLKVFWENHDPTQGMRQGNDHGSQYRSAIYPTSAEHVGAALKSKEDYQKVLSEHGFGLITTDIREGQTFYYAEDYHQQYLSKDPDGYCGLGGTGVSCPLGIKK

[22] = viability loss in THP-1 monocytes – THP-1 cells, cytotoxicity control for Vif-APOBEC3G degradation inhibitor project, dose response (AID 1117359); assay type: functional; settings: THP-1
[23] = molecular target: Paired box protein Pax-8 (Homo sapiens, UniProt Q06710); experiment: PAX8 transcriptional activity inhibition in RMG-I – RMG-I cells, luciferase, cherry-pick, dose response (AID 687027); assay type: functional, cell-based;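 note: luciferase reporter driven by Pax8 target thyroperoxidase promoter measured by SteadyGlo luminescence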
[24] = tested on: Vero; experiment: viability of Vero cells under compound – cytotoxicity control for flavivirus capping enzyme inhibitors (AID 588742); assay type: functional; settings: Chlorocebus sabaeus
[25] = Fluorescence-based cell-based high throughput dose response assay for inhibitors of the interaction of nucleotide-binding oligomerization domain containing 2 (NOD2) and the receptor-interacting serine-threonine kinase 2 (RIPK2).; assay type: functional; settings: Homo sapiens
[26] = general cell-killing toxicity readout – plate reader, dry powder samples, cytotoxicity control for PAX8 inhibitor project, dose response (AID 743021); assay type: functional, cell-based

T1 sequence (Q8VNN2 whole entry): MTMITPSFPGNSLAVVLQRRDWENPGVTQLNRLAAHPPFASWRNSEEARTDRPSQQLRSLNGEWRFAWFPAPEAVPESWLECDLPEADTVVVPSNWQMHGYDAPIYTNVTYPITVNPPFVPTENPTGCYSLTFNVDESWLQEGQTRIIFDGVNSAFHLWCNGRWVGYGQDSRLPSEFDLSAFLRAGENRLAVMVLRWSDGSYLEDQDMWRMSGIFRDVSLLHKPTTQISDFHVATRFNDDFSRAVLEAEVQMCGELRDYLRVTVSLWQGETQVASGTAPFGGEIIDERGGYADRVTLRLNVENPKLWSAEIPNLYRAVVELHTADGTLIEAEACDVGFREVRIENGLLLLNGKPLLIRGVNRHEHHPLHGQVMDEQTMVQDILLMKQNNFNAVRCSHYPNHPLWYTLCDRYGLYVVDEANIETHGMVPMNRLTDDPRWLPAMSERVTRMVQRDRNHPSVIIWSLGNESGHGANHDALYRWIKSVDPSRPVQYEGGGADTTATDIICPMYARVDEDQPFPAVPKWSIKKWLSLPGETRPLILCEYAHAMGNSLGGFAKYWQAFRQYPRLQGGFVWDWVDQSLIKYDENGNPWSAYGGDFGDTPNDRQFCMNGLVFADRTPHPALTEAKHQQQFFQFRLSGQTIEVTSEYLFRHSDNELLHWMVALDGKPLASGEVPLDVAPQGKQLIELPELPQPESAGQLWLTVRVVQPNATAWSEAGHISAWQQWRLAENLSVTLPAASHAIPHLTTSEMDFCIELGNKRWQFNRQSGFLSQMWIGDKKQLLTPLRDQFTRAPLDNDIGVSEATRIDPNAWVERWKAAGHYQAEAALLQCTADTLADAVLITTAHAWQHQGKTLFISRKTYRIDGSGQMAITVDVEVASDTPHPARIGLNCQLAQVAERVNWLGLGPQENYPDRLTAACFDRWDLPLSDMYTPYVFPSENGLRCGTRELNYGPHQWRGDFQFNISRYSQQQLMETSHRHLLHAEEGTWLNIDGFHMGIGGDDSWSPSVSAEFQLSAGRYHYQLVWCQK
Sequence of Cytochrome P450 3A4 (P08684 whole entry): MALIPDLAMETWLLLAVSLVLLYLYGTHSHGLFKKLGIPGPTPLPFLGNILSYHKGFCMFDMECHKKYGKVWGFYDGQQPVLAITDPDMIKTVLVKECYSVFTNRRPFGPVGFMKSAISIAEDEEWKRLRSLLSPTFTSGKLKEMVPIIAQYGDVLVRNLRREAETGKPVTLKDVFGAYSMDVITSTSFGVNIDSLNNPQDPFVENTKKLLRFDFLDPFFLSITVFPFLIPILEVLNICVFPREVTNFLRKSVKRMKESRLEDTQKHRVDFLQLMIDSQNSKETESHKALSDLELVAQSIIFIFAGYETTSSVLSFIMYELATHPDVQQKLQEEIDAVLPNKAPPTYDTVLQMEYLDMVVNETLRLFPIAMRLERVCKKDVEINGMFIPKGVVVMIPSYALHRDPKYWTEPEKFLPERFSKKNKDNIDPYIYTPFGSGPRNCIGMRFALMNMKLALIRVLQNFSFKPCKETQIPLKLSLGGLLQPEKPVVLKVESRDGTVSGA
Sequence of Serine/threonine-protein phosphatase (B9W6M3 whole entry): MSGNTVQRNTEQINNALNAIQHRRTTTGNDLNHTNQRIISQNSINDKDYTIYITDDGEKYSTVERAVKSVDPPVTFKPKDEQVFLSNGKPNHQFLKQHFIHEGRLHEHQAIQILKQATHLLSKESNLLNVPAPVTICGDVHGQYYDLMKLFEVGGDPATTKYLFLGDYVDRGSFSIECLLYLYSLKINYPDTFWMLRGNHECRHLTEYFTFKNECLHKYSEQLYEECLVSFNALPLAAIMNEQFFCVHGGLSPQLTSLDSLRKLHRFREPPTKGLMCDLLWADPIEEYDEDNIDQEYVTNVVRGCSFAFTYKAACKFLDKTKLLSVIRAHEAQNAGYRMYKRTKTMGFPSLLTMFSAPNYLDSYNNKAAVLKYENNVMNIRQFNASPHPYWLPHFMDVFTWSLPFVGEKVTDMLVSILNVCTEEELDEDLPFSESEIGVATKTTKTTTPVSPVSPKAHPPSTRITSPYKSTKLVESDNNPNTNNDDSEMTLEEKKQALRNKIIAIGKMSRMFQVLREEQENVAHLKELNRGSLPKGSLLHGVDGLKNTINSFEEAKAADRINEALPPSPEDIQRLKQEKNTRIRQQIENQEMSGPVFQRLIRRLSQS
Sequence of Voltage-gated inwardly rectifying potassium channel KCNH2 (Q12809 whole entry): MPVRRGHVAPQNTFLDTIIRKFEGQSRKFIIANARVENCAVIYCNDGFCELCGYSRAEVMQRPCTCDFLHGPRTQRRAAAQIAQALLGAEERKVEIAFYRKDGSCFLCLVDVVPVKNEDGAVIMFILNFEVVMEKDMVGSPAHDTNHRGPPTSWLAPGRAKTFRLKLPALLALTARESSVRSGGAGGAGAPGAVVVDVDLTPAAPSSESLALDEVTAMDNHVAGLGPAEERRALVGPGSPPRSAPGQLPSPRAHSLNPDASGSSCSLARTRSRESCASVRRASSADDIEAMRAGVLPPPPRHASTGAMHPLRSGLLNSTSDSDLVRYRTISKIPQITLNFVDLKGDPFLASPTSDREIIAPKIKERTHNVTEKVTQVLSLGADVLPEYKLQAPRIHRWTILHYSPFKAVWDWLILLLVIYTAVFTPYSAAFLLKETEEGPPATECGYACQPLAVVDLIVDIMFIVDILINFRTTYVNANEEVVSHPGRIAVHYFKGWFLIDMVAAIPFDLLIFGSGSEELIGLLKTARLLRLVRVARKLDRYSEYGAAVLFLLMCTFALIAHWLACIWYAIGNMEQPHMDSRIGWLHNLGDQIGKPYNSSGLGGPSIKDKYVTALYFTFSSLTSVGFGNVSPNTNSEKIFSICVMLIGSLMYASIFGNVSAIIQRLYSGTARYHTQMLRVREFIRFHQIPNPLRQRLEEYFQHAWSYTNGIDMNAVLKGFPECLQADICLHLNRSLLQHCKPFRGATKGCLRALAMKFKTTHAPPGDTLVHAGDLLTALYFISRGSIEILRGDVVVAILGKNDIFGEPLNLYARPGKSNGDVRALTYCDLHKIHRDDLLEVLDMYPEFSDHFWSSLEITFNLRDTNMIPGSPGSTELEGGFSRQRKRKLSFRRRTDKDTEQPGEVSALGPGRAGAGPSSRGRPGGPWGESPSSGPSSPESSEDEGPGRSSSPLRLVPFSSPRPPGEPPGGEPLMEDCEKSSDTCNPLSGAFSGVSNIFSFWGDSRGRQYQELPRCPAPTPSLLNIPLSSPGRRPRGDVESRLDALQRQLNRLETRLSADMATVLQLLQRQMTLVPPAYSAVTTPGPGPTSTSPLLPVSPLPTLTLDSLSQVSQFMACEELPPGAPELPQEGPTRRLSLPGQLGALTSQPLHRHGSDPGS
Sequence of Glucose-6-phosphate 1-dehydrogenase (P11413 whole entry): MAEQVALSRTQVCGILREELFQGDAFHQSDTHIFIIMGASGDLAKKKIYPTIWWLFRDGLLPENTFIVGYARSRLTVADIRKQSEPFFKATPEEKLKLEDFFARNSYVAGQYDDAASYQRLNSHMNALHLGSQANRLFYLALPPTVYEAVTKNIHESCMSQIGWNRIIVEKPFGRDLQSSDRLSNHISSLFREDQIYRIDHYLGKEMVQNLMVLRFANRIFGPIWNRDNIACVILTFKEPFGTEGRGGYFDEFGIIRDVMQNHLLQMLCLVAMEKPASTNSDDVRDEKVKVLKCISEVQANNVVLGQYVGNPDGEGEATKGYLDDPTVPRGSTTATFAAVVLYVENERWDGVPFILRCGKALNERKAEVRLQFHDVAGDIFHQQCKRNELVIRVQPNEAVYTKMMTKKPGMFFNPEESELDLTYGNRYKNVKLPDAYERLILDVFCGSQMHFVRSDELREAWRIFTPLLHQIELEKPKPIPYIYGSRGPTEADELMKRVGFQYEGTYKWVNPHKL
Sequence of Genome polyprotein (P29990 2492-3391 limits assumed): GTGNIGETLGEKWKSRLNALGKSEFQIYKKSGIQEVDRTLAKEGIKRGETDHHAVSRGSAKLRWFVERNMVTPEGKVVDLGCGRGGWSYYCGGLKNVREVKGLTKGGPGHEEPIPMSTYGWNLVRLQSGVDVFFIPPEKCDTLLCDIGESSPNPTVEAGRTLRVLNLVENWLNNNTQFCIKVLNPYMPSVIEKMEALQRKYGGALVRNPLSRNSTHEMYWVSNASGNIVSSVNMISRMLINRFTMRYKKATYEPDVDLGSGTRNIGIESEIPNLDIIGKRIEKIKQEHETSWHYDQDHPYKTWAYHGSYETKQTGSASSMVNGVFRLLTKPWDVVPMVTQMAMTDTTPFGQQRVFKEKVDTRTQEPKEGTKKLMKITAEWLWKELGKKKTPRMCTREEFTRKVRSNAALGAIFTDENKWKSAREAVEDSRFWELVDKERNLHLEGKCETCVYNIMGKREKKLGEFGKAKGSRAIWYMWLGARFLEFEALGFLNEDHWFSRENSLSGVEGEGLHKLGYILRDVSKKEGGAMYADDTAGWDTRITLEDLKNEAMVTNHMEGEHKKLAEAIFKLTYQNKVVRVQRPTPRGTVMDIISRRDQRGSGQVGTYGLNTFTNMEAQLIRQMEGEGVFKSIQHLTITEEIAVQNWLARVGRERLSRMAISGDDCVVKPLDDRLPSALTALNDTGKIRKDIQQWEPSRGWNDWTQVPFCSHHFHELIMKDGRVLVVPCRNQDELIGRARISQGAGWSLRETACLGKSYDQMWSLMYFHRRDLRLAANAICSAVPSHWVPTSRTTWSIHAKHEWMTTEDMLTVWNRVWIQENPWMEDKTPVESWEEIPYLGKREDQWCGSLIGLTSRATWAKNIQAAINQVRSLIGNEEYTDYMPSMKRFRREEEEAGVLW

For `CCC1CCCCN1CC(=O)c1ccc(OC(F)F)cc1` (stereo unspecified), the EC50 [1] was > 40 µM (inactive) and the IC50 [2] was > 40 µM (not active).

In the case of `CCC(=O)/C=C/C1C(C)=CCCC1(C)C` (stereo unspecified), the AC50 [3] is reported as 39.8 µM (inconclusive) and the AC50 [4] is reported as 31.6 µM (inconclusive).

With `COc1ccc(-[n+]2cc(-c3ccc(C)cc3)n3c2SCC3)cc1` the EC50 [5] was > 150 µM (inactive), the EC50 [6] was > 180 µM (inactive) and the EC50 [7] was > 150 µM (inactive). For the same molecule, the IC50 [8] was 7.65 µM (active), the IC50 [9] was > 80 µM (inactive) and the AC50 [10] was 1.12 µM (active). For the same molecule, the AC50 [11] was 2.91 µM (active), the EC50 [12] was 0.318 µM (active) and the EC50 [13] was > 60 µM (not active). The EC50 [14] was 1.17 µM (active).

In the case of `O=C(NC1=CC(=O)c2ccccc2C1=O)c1ccccc1`, the IC50 [15] is reported as 11.7 µM (inactive), the IC50 [16] is reported as 3.09 µM (active) and the IC50 [17] is reported as 18.5 µM (active). The IC50 [18] was 35.7 µM (inactive), the IC50 [19] was > 66.6 µM (inactive) and the IC50 [20] was > 66.6 µM (inactive). The EC50 [21] was 34.1 µM (inactive), the CC50 [22] was 2.65 µM (active) and the AC50 [23] was 4.43 µM (active). For the same molecule, the CC50 [24] was 15.2 µM (active), the IC50 [25] was 2.06 µM (active) and the AC50 [26] was 24.2 µM (active).
